The text below walks through data of ChEMBL document CHEMBL4145572, “Non-covalent Small-Molecule Kelch-like ECH-Associated Protein 1-Nuclear Factor Erythroid 2-Related Factor 2 (Keap1-Nrf2) Inhibitors and Their Potential for Targeting Central Nervous System Diseases” (J Med Chem, 2018).

The structures appear in SMILES notation.

The nature of data set [1]: Ratio of unbound drug level in mouse brain to plasma. Type of data set: ADME. The note with it: read-out: K(p,uu,brain).
Data set [2] concerns the target T1, Keap1/Nrf2 (Homo sapiens, UniProt Q14145). Nature of the data set: Inhibition of full length Flag/His-tagged Keap1 kelch domain (unknown origin)/full length Avi-tagged Nrf2 (unknown origin) interaction after 2.25 hrs by TR-FRET assay. Format: protein assay. A general note: In TR-FRET formats the signal depends on donor and acceptor labels being close together.

The target of data set [3] is T1, Keap1/Nrf2. The data set is described as follows: Inhibition of Keap1 kelch domain (unknow origin)/Nrf2-ETGE peptide (unknown origin) interaction by fluorescence polarization assay. Type of data set: protein assay. In general terms: In fluorescence polarisation assays a small probe gives low polarisation when free and higher when bound to something large.
Data set [4] has as its system MDR1. Nature of the data set: Efflux ratio of apparent permeability in MDCK-MDR1 cells at 10 uM up to 120 mins. Type of data set: ADME, cell-based, Canis lupus familiaris. The following applies: dog.
A short description of data set [5]: Ratio of unbound drug level in Mdr1a/1b/Bcrp knock-out mouse brain to plasma. The note with it: read-out: K(p,uu,brain). Type of data set: ADME.
Data set [6] concerns the target T2, Kelch-like ECH-associated protein 1 (Homo sapiens, UniProt Q14145). Nature of the data set: Activation of human GST-tagged Keap1-DC (321 to 609 residues) expressed in human Huh transformed cells after 16 hrs by ARE-based steady-glo luciferase reporter gene assay. Type of data set: cell-based. In general terms: Reporter assays use an easily measured gene product as a stand-in for the process of interest.

The target of data set [7] is T2, Kelch-like ECH-associated protein 1. The data set is described as follows: Inhibition of human Keap1 kelch domain (321 to 609 residues) binding to TAMRA-labeled Nrf2-ETGE peptide after 1 hr by fluorescence polarization assay.
The target in data set [8] is T1, Keap1/Nrf2. The data set is described as follows: Inhibition of Keap1/NRF2 interaction in human BEAS-2B cells assessed as upregulation of NQ01 after 48 hrs by MTT assay. Format: cell-based.

T1 sequence (Q16236 whole entry, the tested form may be a part): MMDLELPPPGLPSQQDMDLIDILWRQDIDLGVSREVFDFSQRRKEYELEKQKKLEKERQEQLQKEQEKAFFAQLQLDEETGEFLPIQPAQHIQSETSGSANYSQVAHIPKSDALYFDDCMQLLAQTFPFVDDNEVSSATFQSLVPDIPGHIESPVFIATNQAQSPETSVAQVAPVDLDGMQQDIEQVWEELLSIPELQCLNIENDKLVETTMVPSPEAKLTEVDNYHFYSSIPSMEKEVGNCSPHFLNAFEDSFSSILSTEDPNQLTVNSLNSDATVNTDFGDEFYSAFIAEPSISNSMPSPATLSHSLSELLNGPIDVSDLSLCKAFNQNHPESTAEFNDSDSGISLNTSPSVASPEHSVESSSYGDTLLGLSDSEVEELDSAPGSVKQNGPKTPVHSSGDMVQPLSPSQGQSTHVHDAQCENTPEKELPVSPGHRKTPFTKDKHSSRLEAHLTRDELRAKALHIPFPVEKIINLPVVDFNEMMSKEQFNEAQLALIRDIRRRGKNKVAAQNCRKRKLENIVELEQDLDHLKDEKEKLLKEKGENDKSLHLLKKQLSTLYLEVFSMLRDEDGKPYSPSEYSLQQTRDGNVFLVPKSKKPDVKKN
T1 sequence (Q14145 whole entry, the tested form may be a part): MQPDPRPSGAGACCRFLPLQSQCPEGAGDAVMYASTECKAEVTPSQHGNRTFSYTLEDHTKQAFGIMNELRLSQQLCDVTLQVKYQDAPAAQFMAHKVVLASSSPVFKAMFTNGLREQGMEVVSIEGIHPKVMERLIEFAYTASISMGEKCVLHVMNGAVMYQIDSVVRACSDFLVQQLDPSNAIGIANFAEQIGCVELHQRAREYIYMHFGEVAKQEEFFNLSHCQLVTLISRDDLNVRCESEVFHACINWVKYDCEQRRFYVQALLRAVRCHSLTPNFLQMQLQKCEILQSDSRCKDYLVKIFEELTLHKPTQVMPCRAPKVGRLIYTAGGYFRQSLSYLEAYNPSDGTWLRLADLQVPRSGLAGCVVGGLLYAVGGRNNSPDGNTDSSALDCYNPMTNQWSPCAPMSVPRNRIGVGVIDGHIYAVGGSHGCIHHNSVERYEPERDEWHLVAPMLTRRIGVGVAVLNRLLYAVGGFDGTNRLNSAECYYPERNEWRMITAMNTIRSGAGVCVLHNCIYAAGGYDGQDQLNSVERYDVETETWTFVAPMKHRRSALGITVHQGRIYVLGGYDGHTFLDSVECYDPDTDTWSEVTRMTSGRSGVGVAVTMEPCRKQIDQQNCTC
T2 sequence (Q14145 whole entry, the tested form may be a part): as above

Consider `O=C(O)[C@H]1NCCC[C@H]1C(=O)N1CCc2ccccc2[C@H]1CN1C(=O)c2ccccc2C1=O`, for which the Kp uu in data set [1] was less than 0.01. The IC50 is the midpoint of a concentration-inhibition curve. A high value points to weaker potency. On to `C[C@H](Oc1cccc(-c2cccc(-n3ncc(C(=O)O)c3[C@@H]3C[C@H]3c3cn(C)nn3)c2)c1)C1CCCCC1`, for which the IC50 in data set [2] was less than 10 nM.

As usually defined, the efflux ratio is a quotient of directional permeabilities that is used to spot active efflux. Regarding `O=C1c2ccccc2C(=O)N1C[C@@H]1c2ccccc2CCN1C(=O)C1CCCCC1`, in data set [3], the half-maximal inhibitory concentration (IC50) is more than 100000 nM. Moreover, the efflux ratio at 2 h, 10 µM in data set [4] was 0.7. Also, the Kp uu in data set [1] was 0.3. For `O=C(O)[C@H]1CCCC[C@H]1C(=O)N1CCc2ccccc2[C@H]1Cc1ccccc1` the same measures were more than 100000 nM, 0.7 and 0.9. On to `O=C(O)[C@H]1CCCC[C@H]1C(=O)N1CCc2ccccc2[C@H]1CN1C(=O)c2ccccc2C1=O`, for which the figures for the Kp uu in data set [5] and in data set [1] were 0.4 and less than 0.01, respectively.

The compound `O=C(NCc1ccccn1)Nc1nnc(-c2ccco2)o1` gave an EC2 in data set [6] of 1.36 µM. The term EC50 denotes the concentration needed to bring the measured effect to its halfway point. Compound `CCCC[C@@H]1CCCN1C(=O)c1cccc(-c2cccc(-n3ncc(C(=O)O)c3C3CC3)c2)c1` showed an IC50 in data set [7] of 10 to 100 nM. For the same compound, in data set [8], the 50% effective concentration (EC50) was found to be 79 nM. With `O=C(O)[C@H]1CCCC[C@H]1C(=O)N1CCc2ccccc2[C@H]1CN1Cc2ccccc2C1=O`, the 50% inhibitory concentration (IC50) in data set [3] came out at 1100 nM. Further, the efflux ratio at 2 h, 10 µM in data set [4] came to 7.5.
